Results reported in patent publication US6812034B2, “Fetuin-MGP-mineral complex in serum assayed to determine calcification risk” (The Regents of the University of California, priority 2000, dated 2004).
Entries after “also recorded” stand apart in the source; their conditions may differ.

Columns and labels:
Type in all cases: in vivo, rat
[1] = system: aorta calcification in rats treated with vitamin D plus warfarin; assay: von Kossa staining for calcification in rats treated with vitamin D plus warfarin; settings: for Histology Score Observer #1 x ± S.D. / Histology Score Observer #2 x ± S.D.: 84 h; for dose that completely eliminated von Kossa staining for mineral in the abdominal aorta: 84 h after first vitamin D
Protocol: (§1) For measurement of mineral accumulation in arteries, each tissue was removed within 30 minutes of death and immediately frozen. Tissues were subsequently washed extensively with buffer and extracted with 1 ml of 10% formic acid for 24 h at room temperature, as described. Calcium levels in serum were determined colorimetrically using cresolphthalein complexone (Sigma) and phosphate levels in serum and in acid tissue extracts were determined calorimetrically as described (Zhu et al. (1994) Cardiology, 85: 370-377). Tissue sectioning and staining were carried out by Biomedical Testing Services, Inc., (San Diego, Calif.).
Male Sprague Dawley rats were fed ad libitum with rodent diet 5001 (Purina Mills Inc., St. Louis, Mo.), a diet that is 0.67% phosphorus and 0.95% calcium by weight. This diet contains 500 μg per kg of phylloquinone and has no added menadione. In all experiments, animals were killed by exsanguination while under metofane anesthetic, and selected tissues were removed immediately and fixed in 10% buffered formalin or frozen at −20° C. for later studies. All animal experiments were approved by the UCSD animal subjects committee.

[2] = system: vitamin D-induced artery calcification; assay: mineral phosphate accumulation in acid demineralization extracts of thoracic aorta and carotid arteries, vitamin D plus warfarin; settings: for Artery Calcification Relative potency: relative to etidronate = 1
Protocol: Tissues were subsequently washed extensively with buffer and extracted with 1 ml of 10% formic acid for 24 h at room temperature, as described. Calcium levels in serum were determined colorimetrically using cresolphthalein complexone (Sigma) and phosphate levels in serum and in acid tissue extracts were determined calorimetrically as described (Zhu et al. (1994) Cardiology, 85: 370-377). Tissue sectioning and staining were carried out by Biomedical Testing Services, Inc., (San Diego, Calif.). The effect of bisphosphonates on artery calcification was first examined in rats in which artery calcification was induced by treatment with warfarin plus high doses of vitamin D. […] All animals were killed by exsanguination at 96 h. […] All animals were killed by exsanguination at 96 h after the first vitamin D dose. […] All animals were killed by exsanguination 96 h after the first vitamin D injection.

[3] = serum levels of calcium and phosphate in rats treated with vitamin D plus warfarin; settings: 84 h; for reduction of serum phosphate: two highest doses
Protocol: as §1, with “Calif.). […]” for “Calif.).”

[4] = Sephacryl S300 gel filtration of serum; settings: serum 6 h after etidronate, concurrent warfarin
Protocol: The serum mineral complex was characterized by gel filtration using 25 ml columns of Sephacryl S-300 HR which were prepared in disposable plastic pipets and were equilibrated with 20 mM HEPES pH 7.4, 0.15 M NaCl and 10 mM CaCl2 at room temperature. Serum was obtained from rats 6 h after administration of etidronate at a dose of 8 mg/100 g, and 1 ml aliquots were immediately applied to the Sephacryl column. Fractions of 0.5 ml were then collected and analyzed to determine the level of phosphate and MGP (see below).

[5] = serum levels of calcium, phosphate, MGP and BGP after subcutaneous bisphosphonate
Protocol: Rats were fed rodent diet 5001 (Purina Mills Inc., St. […] Etidronate was dissolved with 0.15 M NaCl, titrated to pH 7.4 with dilute NaOH, and administered subcutaneously to forty-day-old male rats. Control animals received injections of 0.15 M NaCl only. […] At the times indicated in FIG. 1, each rat was anesthetized with metofane and a 400 μl sample of blood was withdrawn from the jugular vein. Blood samples were allowed to clot for 15 min at room temperature and serum was obtained after centrifugation in a clinical centrifuge and then frozen rapidly on dry ice and stored at -70° C. until later analysis. The same procedure was followed for the second time course experiment (FIG. 10), with the difference that the etidronate dose was increased to 32 mg per 100 g body weight. […] Two hours later, all rats were injected with etidronate at a dose of 8 mg/100 g (t=0), and 400 μl of blood were removed from each animal at the indicated times for biochemical analyses. […] In neither control group could we detect a significant change in serum levels of calcium, phosphate, or MGP at any time point. […] Rice et al. (1994) J. Bone Min. Res. 9: 567-576). Calcium levels in serum and other samples were determined colorimetrically using cresolphthalein complexone (Sigma) and phosphate levels in serum, effluent fractions, and other samples were determined calorimetrically as described (Chen et al. (1956) Anal. Chem. 28(11): 1756-1758). For determination of ionic calcium, freshly obtained blood samples were immediately placed into a 2.5 ml gold top vacutainer tube to avoid out gassing of CO2 and the associated shift in pH. […] Electrophoresis was carried out using 4 to 20% polyacrylamide gels (Novex, Inc., San Diego, Calif.) run in Tris-glycine buffer containing SDS. Protein sequencing was carried out on bands transferred to PVDF membranes using a Procise 494 Sequencer (ABI division, PE Biosystems, Foster City, Calif.).

[6] = weight, tibia length and serum calcium and phosphate in warfarin-treated rats; settings: for mg Ca dl serum / mg P dl serum: 4 weeks
Excerpt: This procedure induces artery calcification within 2 weeks without the presence of hypercalcemia.

[7] = system: warfarin-induced artery calcification; assay: artery calcification in rats treated with warfarin for 2 or 4 weeks; settings: both carotid arteries
Protocol: Tissues were subsequently washed extensively with buffer and extracted with 1 ml of 10% formic acid for 24 h at room temperature, as described. Calcium levels in serum were determined colorimetrically using cresolphthalein complexone (Sigma) and phosphate levels in serum and in acid tissue extracts were determined calorimetrically as described (Zhu et al. (1994) Cardiology, 85: 370-377). Tissue sectioning and staining were carried out by Biomedical Testing Services, Inc., (San Diego, Calif.). The effect of bisphosphonates on artery calcification was also examined in rats treated with warfarin alone using procedures which have been described elsewhere (Price et al. (1998) Arterioscler. Thromb. Vasc. Biol. 18: 1400-1407).

[8] = 0.00036 mg P/kg/day sc, score 0-5 (5 most calcified)
[9] = 0.0018 mg P/kg/day sc, score 0-5
[10] = 0.009 mg P/kg/day sc, score 0-5
[11] = 0.045 mg P/kg/day sc, score 0-5
[12] = 15.4 mg warfarin per 100 g 2 h before 8 mg/100 g etidronate
[13] = 0.0004 mg P/kg/day sc, score 0-5
[14] = 0.002 mg P/kg/day sc, score 0-5
[15] = 0.010 mg P/kg/day sc, score 0-5
[16] = 0.050 mg P/kg/day sc, score 0-5
[17] = 0.025 mg P/kg/day plus warfarin

## CCCCCN(C)CCC(O)(P(=O)(O)O)P(=O)(O)O [Ibandronate, (1-hydroxy-3-(methylpentylamino)propylidene)bis-phosphonate]
[1]; [8]
  Histology Score Observer #1 x ± S.D.: 1.0 ± 0.8
  Histology Score Observer #2 x ± S.D.: 1.0 ± 0.8
[1]; [9]
  Histology Score Observer #1 x ± S.D.: 0.0 ± 0.0
  Histology Score Observer #2 x ± S.D.: 0.0 ± 0.0
[1]; [10]
  Histology Score Observer #1 x ± S.D.: 0.0 ± 0.0
  Histology Score Observer #2 x ± S.D.: 0.0 ± 0.0
[1]; [11]
  Histology Score Observer #1 x ± S.D.: 0.0 ± 0.0
  Histology Score Observer #2 x ± S.D.: 0.0 ± 0.0
[1]
  dose that completely eliminated von Kossa staining for mineral in the abdominal aorta: ≥ 0.0018 mg P/kg/day
[2]; 84 h, FIG. 3
  dose required to reduce the extent of mineralization by half in the thoracic aorta: 0.0002 mg P/kg/day
[2]; 84 h, FIG. 4
  dose required to reduce the extent of mineralization by half in the carotid artery: 0.00018 mg P/kg/day
[2]; daily subcutaneous dose, vitamin D-induced artery calcification, male rats initially 200 g
  Artery Calcification Dose for 50% inhibition: 0.00019 mg P/kg/day
[2]; rat, FIGS. 3 and 4
  subcutaneous dose required for 50% inhibition of artery calcification: 0.2 μg P/kg/day
[2]
  Artery Calcification Relative potency: 10500
[2]; listed as ibandronate
  Artery Calcification Relative potency: 10,500
[3]; 0.00036 mg P/kg/day
  Serum Ca: 13.8 ± 0.6 mg/dL
  Serum P: 9.9 ± 0.5 mg/dL
[3]; 0.0018 mg P/kg/day
  Serum Ca: 15.5 ± 0.9 mg/dL
  Serum P: 10.3 ± 0.6 mg/dL
[3]; 0.009 mg P/kg/day
  Serum Ca: 14.9 ± 0.6 mg/dL
  Serum P: 10.4 ± 0.7 mg/dL
[3]; 0.045 mg P/kg/day
  Serum Ca: 15.4 ± 0.3 mg/dL
  Serum P: 9.9 ± 0.4 mg/dL
[3]
  reduction of serum phosphate: ~11%

## CC(=O)CC(c1ccccc1)c1c(O)c2ccccc2oc1=O (centres unmarked) [warfarin]
[4]
  MGP levels in the high molecular weight position, of the level in vitamin K-replete, etidronate treated rats: 5%
  phosphate levels in the high molecular weight, excluded volume position vs vitamin K-replete, etidronate treated rats: comparable
[5]; [12]
  effect on the increase in serum MGP following etidronate: prevents the increase in serum MGP; also recorded: blocked the increase in serum MGP
  effect on the time course of the elevation in serum calcium and phosphate following etidronate: did not affect
[5]; animals which did not receive etidronate
  effect on serum levels of MGP: no effect

## NCCCC(O)(P(=O)(O)O)P(=O)(O)O [Alendronate, (4-amino-1-hydroxybutylidene)bis-phosphonate]
[1]; [13]
  Histology Score Observer #1 x ± S.D.: 2.8 ± 1.0
  Histology Score Observer #2 x ± S.D.: 3.3 ± 1.3
[1]; [14]
  Histology Score Observer #1 x ± S.D.: 2.5 ± 0.6
  Histology Score Observer #2 x ± S.D.: 2.0 ± 0.8
[1]; [15]
  Histology Score Observer #1 x ± S.D.: 2.0 ± 1.8
  Histology Score Observer #2 x ± S.D.: 2.5 ± 1.3
[1]; [16]
  Histology Score Observer #1 x ± S.D.: 0.8 ± 0.5
  Histology Score Observer #2 x ± S.D.: 0.4 ± 0.5
[1]; 0.25 mg P/kg/day sc, score 0-5
  Histology Score Observer #1 x ± S.D.: 0.0 ± 0.0
  Histology Score Observer #2 x ± S.D.: 0.0 ± 0.0
[1]
  dose that completely eliminated von Kossa staining for mineral in the abdominal aorta: 0.25 mg P/kg/day
[5]; 4 mg/100 g dose, 1, 2, 6, 12 and 24 h, data not shown
  effect on serum calcium, phosphate and MGP levels: no effect
[6]; [17]
  mg Ca dl serum: 10.0 ± 0.1 mg/dL
  mg P dl serum: 10.0 ± 0.1 mg/dL
[6]; 0.25 mg P/kg/day plus warfarin
  mg Ca dl serum: 10.8 ± 0.1 mg/dL
  mg P dl serum: 10.9 ± 0.7 mg/dL
[6]; 0.025 and 0.25 mg P/kg/day, warfarin 4 weeks
  effect on bone growth or weight gain: without affecting bone growth or weight gain
[7]; [17]
  nmol PO4 Carotid: 374.0 ± 217.4 nmol
[7]; 0.25 mg P/kg/day plus warfarin
  nmol PO4 Carotid: 63.7 ± 43.1 nmol
[3]; 0.0004 mg P/kg/day
  Serum Ca: 13.3 ± 0.7 mg/dL
  Serum P: 10.8 ± 1.2 mg/dL
[3]; 0.002 mg P/kg/day
  Serum P: 10.2 ± 0.6 mg/dL
[3]; 0.01 mg P/kg/day
  Serum Ca: 15.9 ± 0.4 mg/dL
  Serum P: 10.0 ± 0.9 mg/dL
[3]; 0.05 mg P/kg/day
  Serum P: 9.9 ± 0.5 mg/dL
[3]; 0.25 mg P/kg/day
  Serum P: 9.5 ± 0.7 mg/dL
[3]
  reduction of serum phosphate: about 16%
